Results reported in publication PMC10657444, “Design and evaluation of tadpole-like conformational antimicrobial peptides” (Communications Biology, 2023).
Several values for one entry are separate records, joined by “and”; a condition that tells them apart may be missing. Equal values may be shown once. Residues, ends and D or L forms follow the SMILES beside them.

Assays:
MRSA = format: cell-based, Staphylococcus aureus
Text: Bacteria were cultivated in Luria-Bertani (LB) broth.

sheep red blood cells = experiment: Hemolysis assay
MRSA USA 300 [1] = experiment: Time-kill assay; format: cell-based, Staphylococcus aureus
Description: (§1) Time-kill assays were done in tubes (in 1.5 mL of LB) and antibiotics at the 1 ×, 2 ×, 4 × and 8 × MIC. Tubes were inoculated (5 × 10^6 CFU/mL) with MRSA USA 300 and K. pneumoniae ATCC 700603 and incubated at 37 °C under shaking. Serial dilutions of the cultures were plated at each desired time point (0, 1, 3, 6, and 24 h), using a multichannel pipette as follows: in line 1 of a 96-well plate, 100 µL of bacterial suspension was added, while 90 µL of 0.9% sterile saline per well was added to the other lines. At selected time points, 100 µL of bacterial suspension was transferred from the time-kill assay plate to the first line. The wells were further diluted 1 in 10 (0.9% saline) for the appropriate number of dilutions and 10 μL of each dilution was spotted in duplicate onto MH agar plates, then incubated overnight at 37°C. The colonies in each spot were counted and used to calculate the number of viable CFU/mL remaining in the original culture by considering the dilution factors.

[2] = tested on: K. pneumoniae ATCC 700603; experiment: Time-kill assay; format: cell-based, Klebsiella pneumoniae
Description: as §1

MRSA USA 300 [3] = experiment: Membrane permeability, SYTOX Green; format: cell-based, Staphylococcus aureus
Description: Fluorescent probe SYTOX^TM Green (Invitrogen/ Life Technologies, S7020) was used to analyze the effect of HT2 and RI-HT2 on membrane permeability of MRSA USA 300 and K. pneumoniae ATCC 700603 as described elsewhere. SYTOX^TM Green is a DNA binding dye that is fluorescent when bound to nucleic acids and only enters cells with compromised plasma membranes. MRSA USA 300 and K. pneumoniae ATCC 700603 were cultured in LB broth to mid log phase at 37 °C and washed with PBS and resuspended (OD595 ≈ 0.1) in the same buffer. SYTOX^TM Green was added into the cell suspension with a final concentration of 5 μM and being kept in dark for 20 min. 98 µL pre-treated cell suspension was transferred into wells of 96-well glass black plates. Then, 2 µL of compound or DMSO were added to initiate the reaction. The final concentrations of HT2 and RI-HT2 were 1 ×, 2 ×, 4 × and 8 × MIC. Fluorescence strength was measured with excitation/emission wavelength of 485/528 nm every 5 min for 60 min.

[4] = tested on: K. pneumoniae ATCC 700603; experiment: Transmission electron microscopy; format: cell-based, Klebsiella pneumoniae; details: 2 × MIC, 60 min
Description: The processing method of the samples for transmission electron microscopy (TEM) was the same as the treatment for SEM. The samples were then prefixed with 2.5% glutaraldehyde at 4°C overnight, post-fixed with osmium tetroxide for 70 min, and washed twice with PBS (pH 7.4). Subsequently, the samples were dehydrated for 10 min in a graded ethanol series (30, 50, 70, 90, and 100%) followed by 10 min in a mixture of absolute ethanol and acetone (1:1, v/v) and 10 min in absolute acetone. The specimens were transferred to a mixture of absolute acetone and epoxy resin (1:1, v/v) for 30 min and then to pure epoxy resin overnight at a constant temperature. Finally, the samples were sectioned using an ultramicrotome, stained with uranyl acetate and lead citrate, and then observed by TEM (Hitachi H-7650, Japan).

Compound: CC[C@H](C)[C@H](NC(=O)[C@H](CCCNC(=N)N)NC(=O)[C@H](CCCNC(=N)N)NC(=O)[C@H](CC(C)C)NC(=O)[C@H](Cc1ccccc1)NC(=O)[C@@H](N)CCCNC(=N)N)C(=O)N[C@@H](Cc1ccccc1)C(=O)N[C@@H](Cc1ccccc1)C(=O)N[C@@H](Cc1ccccc1)C(=O)N[C@@H](Cc1ccccc1)C(N)=O [HT2] (H-RFLRRIFFFF-NH2)
- MICs against Gram-positive bacterial strains (MRSA): 1.57 to 3.13 µM
- OD450, hemolysis (Fig 2b), replicates (sheep red blood cells; 6.25 µM): 0.02117 (2×) and 0.02078 and 0.02133 (2×) and 0.02093
- OD450, hemolysis (Fig 2b), replicates (sheep red blood cells; 12.5 µM): 0.02313 and 0.0233
- HC10 (concentration inducing 10% hemolysis) (sheep red blood cells; red cells of sheep, 1 h): > 100.0 µM
- viable count, time-kill (MRSA USA 300 [1]; 2 × MIC, 0 h): 3600000 CFU/mL and 3500000 CFU/mL and 3200000 CFU/mL
- viable count, time-kill (MRSA USA 300 [1]; 2 × MIC, 3 h): 3900000 CFU/mL and 3800000 CFU/mL
- viable count, time-kill (MRSA USA 300 [1]; 2 × MIC, 6 h): 1700000 CFU/mL and 1900000 CFU/mL
- viable count, time-kill (MRSA USA 300 [1]; 2 × MIC, 24 h): 910000 CFU/mL and 920000 CFU/mL and 890000 CFU/mL
- viable count, time-kill (MRSA USA 300 [1]; 4 × MIC, 0 h): 3600000 CFU/mL and 3500000 CFU/mL and 3200000 CFU/mL
- viable count, time-kill (MRSA USA 300 [1]; 4 × MIC, 1 h): 970000 CFU/mL and 1040000 CFU/mL and 1090000 CFU/mL
- viable count, time-kill (MRSA USA 300 [1]; 4 × MIC, 3 h): 840000 CFU/mL and 870000 CFU/mL and 910000 CFU/mL
- viable count, time-kill (MRSA USA 300 [1]; 4 × MIC, 6 h): 150000 CFU/mL and 160000 CFU/mL and 180000 CFU/mL
- viable count, time-kill (MRSA USA 300 [1]; 4 × MIC, 24 h): 68000 CFU/mL and 71000 CFU/mL and 72000 CFU/mL
- viable count, time-kill (MRSA USA 300 [1]; 8 × MIC, 0 h): 3600000 CFU/mL and 3500000 CFU/mL and 3200000 CFU/mL
- viable count, time-kill (MRSA USA 300 [1]; 8 × MIC, 1 h): 990000 CFU/mL and 950000 CFU/mL and 910000 CFU/mL
- viable count, time-kill (MRSA USA 300 [1]; 8 × MIC, 3 h): 580000 CFU/mL and 590000 CFU/mL
- viable count, time-kill (MRSA USA 300 [1]; 8 × MIC, 6 h): 68000 CFU/mL and 70000 CFU/mL and 77000 CFU/mL
- viable count, time-kill (MRSA USA 300 [1]; 8 × MIC, 24 h): 1000 CFU/mL and 1100 CFU/mL and 1400 CFU/mL
- killing outcome (in words) (MRSA USA 300 [1]; 8 × MIC, after 24 h): cannot completely be killed
- viable count, time-kill (MRSA USA 300 [1]; MIC, 0 h): 3600000 CFU/mL and 3500000 CFU/mL and 3200000 CFU/mL
- viable count, time-kill (MRSA USA 300 [1]; MIC, 1 h): 4600000 CFU/mL and 4900000 CFU/mL
- viable count, time-kill (MRSA USA 300 [1]; MIC, 3 h): 2100000 CFU/mL and 2000000 CFU/mL and 2300000 CFU/mL
- viable count, time-kill (MRSA USA 300 [1]; MIC, 6 h): 2800000 CFU/mL and 2500000 CFU/mL and 1700000 CFU/mL
- viable count, time-kill (MRSA USA 300 [1]; MIC, 24 h): 4100000000 CFU/mL and 4400000000 CFU/mL and 4900000000 CFU/mL
- viable count, time-kill ([2]; 2 × MIC, 0 h): 3000000 CFU/mL and 3500000 CFU/mL and 3400000 CFU/mL
- viable count, time-kill ([2]; 2 × MIC, 1 h): 275000 CFU/mL and 375000 CFU/mL and 310000 CFU/mL
- viable count, time-kill ([2]; 2 × MIC, 3 h): 33000 CFU/mL and 31000 CFU/mL
- viable count, time-kill ([2]; 2 × MIC, 6 h): 14000 CFU/mL and 18000 CFU/mL and 16000 CFU/mL
- viable count, time-kill ([2]; 2 × MIC, 24 h): 18000 CFU/mL and 24000 CFU/mL and 23000 CFU/mL
- viable count, time-kill ([2]; 4 × MIC, 0 h): 3000000 CFU/mL and 3500000 CFU/mL and 3400000 CFU/mL
- viable count, time-kill ([2]; 4 × MIC, 1 h): 70000 CFU/mL and 65000 CFU/mL and 66000 CFU/mL
- viable count, time-kill ([2]; 4 × MIC, 6 h): 8000 CFU/mL and 7400 CFU/mL and 9000 CFU/mL
- viable count, time-kill ([2]; 4 × MIC, 24 h): 16000 CFU/mL and 21000 CFU/mL and 19000 CFU/mL
- viable count, time-kill ([2]; 8 × MIC, 0 h): 3000000 CFU/mL and 3500000 CFU/mL and 3400000 CFU/mL
- viable count, time-kill ([2]; 8 × MIC, 1 h): 520000 CFU/mL and 540000 CFU/mL and 550000 CFU/mL
- viable count, time-kill ([2]; 8 × MIC, 3 h): 500 CFU/mL and 700 CFU/mL
- viable count, time-kill ([2]; 8 × MIC, 24 h): 100 CFU/mL and 200 CFU/mL
- killing outcome (in words) ([2]; 8 × MIC, after 24 h): cannot completely be killed
- viable count, time-kill ([2]; MIC, 0 h): 3000000 CFU/mL and 3500000 CFU/mL and 3400000 CFU/mL
- viable count, time-kill ([2]; MIC, 1 h): 400000 CFU/mL and 330000 CFU/mL and 410000 CFU/mL
- viable count, time-kill ([2]; MIC, 6 h): 430000 CFU/mL and 570000 CFU/mL and 480000 CFU/mL
- viable count, time-kill ([2]; MIC, 24 h): 51000000 CFU/mL and 58000000 CFU/mL and 54000000 CFU/mL
- Fluorescence intensity (MRSA USA 300 [3]; 2 × MIC, time 25 min): 31855 and 32475 and 30920
- Fluorescence intensity (MRSA USA 300 [3]; 2 × MIC, time 30 min): 32738 and 33363 and 31902
- Fluorescence intensity (MRSA USA 300 [3]; 2 × MIC, time 35 min): 33433 and 34141 and 32365
- Fluorescence intensity (MRSA USA 300 [3]; 2 × MIC, time 40 min): 33952 and 34791 and 32993
- Fluorescence intensity (MRSA USA 300 [3]; 2 × MIC, time 45 min): 34234 and 35153 and 33304
- Fluorescence intensity (MRSA USA 300 [3]; 2 × MIC, time 50 min): 34616 and 35530 and 33726
- Fluorescence intensity (MRSA USA 300 [3]; 2 × MIC, time 55 min): 35021 and 36015 and 33983
- Fluorescence intensity (MRSA USA 300 [3]; 2 × MIC, time 60 min): 35210 and 36080 and 33852
- Fluorescence intensity (MRSA USA 300 [3]; 4 × MIC, time 25 min): 58334 and 57993 and 60104
- Fluorescence intensity (MRSA USA 300 [3]; 4 × MIC, time 30 min): 59686 and 59179 and 61418
- Fluorescence intensity (MRSA USA 300 [3]; 4 × MIC, time 35 min): 60470 and 60307 and 62172
- Fluorescence intensity (MRSA USA 300 [3]; 4 × MIC, time 40 min): 61373 and 61097 and 62778
- Fluorescence intensity (MRSA USA 300 [3]; 4 × MIC, time 45 min): 61952 and 61758 and 63164
- Fluorescence intensity (MRSA USA 300 [3]; 4 × MIC, time 50 min): 62152 and 62388 and 63395
- Fluorescence intensity (MRSA USA 300 [3]; 4 × MIC, time 55 min): 62374 and 62948 and 63676
- Fluorescence intensity (MRSA USA 300 [3]; 4 × MIC, time 60 min): 62761 and 62954 and 64070
- Fluorescence intensity (MRSA USA 300 [3]; 8 × MIC, time 0 min): 1486
- Fluorescence intensity (MRSA USA 300 [3]; 8 × MIC, time 25 min): 61022 and 63005 and 63531
- Fluorescence intensity (MRSA USA 300 [3]; 8 × MIC, time 30 min): 61916 and 63588 and 64175
- Fluorescence intensity (MRSA USA 300 [3]; 8 × MIC, time 35 min): 62425 and 64473 and 64696
- Fluorescence intensity (MRSA USA 300 [3]; 8 × MIC, time 40 min): 62708 and 64561 and 64714
- Fluorescence intensity (MRSA USA 300 [3]; 8 × MIC, time 45 min): 62984 and 64891 and 65072
- Fluorescence intensity (MRSA USA 300 [3]; 8 × MIC, time 50 min): 63293 and 64293 and 63594
- Fluorescence intensity (MRSA USA 300 [3]; 8 × MIC, time 55 min): 63589 and 64553 and 65531
- Fluorescence intensity (MRSA USA 300 [3]; 8 × MIC, time 60 min): 63666 and 65987 and 65753
- Fluorescence intensity (MRSA USA 300 [3]; MIC, time 0 min): 1304 and 1201 and 1387
- Fluorescence intensity (MRSA USA 300 [3]; MIC, time 25 min): 17216 and 17215 and 16315
- Fluorescence intensity (MRSA USA 300 [3]; MIC, time 30 min): 17367 and 17359 and 16618
- Fluorescence intensity (MRSA USA 300 [3]; MIC, time 35 min): 17590 and 17525 and 16584
- Fluorescence intensity (MRSA USA 300 [3]; MIC, time 40 min): 17600 and 17633 and 16680
- Fluorescence intensity (MRSA USA 300 [3]; MIC, time 45 min): 17644 and 17567 and 16788
- Fluorescence intensity (MRSA USA 300 [3]; MIC, time 50 min): 17792 and 17686 and 16728
- Fluorescence intensity (MRSA USA 300 [3]; MIC, time 55 min): 17738 and 17641 and 16766
- Fluorescence intensity (MRSA USA 300 [3]; MIC, time 60 min): 17754 and 17734 and 16661
- time to maximum SYTOX Green fluorescence intensity (MRSA USA 300 [3]; different concentrations): ≤ 10 min
- membrane and intracellular structure by TEM (in words) [4]: cytoplasmic membranes became blurred and separated
